Several values for one entry are separate records, joined by “and”; a condition that tells them apart may be missing. Identical values can stand only once. Entries after “also recorded” stand apart in the source; their conditions may differ.

The target in assay [1] is T1, AccA (Agrobacterium fabrum, UniProt Q52012). Kind of assay: biochemical. In kind it is binding, Agrobacterium tumefaciens C58. The settings on record: for fluorescence intensity / autofluorescence signal change on incubating AccA with ligand: tryptophan fluorescence, excitation 295 nm, emission 335 nm. On the procedure:
Ligand binding to the protein AccA was investigated using tryptophan fluorescence spectroscopy, a method exploiting significant conformational changes accompanying the binding.
All experiments were performed at 22°C in 3 x 15 mm quartz cuvettes using Cary Eclypse spectrofluorometer (Varian) in 25 mM Tris-HCl pH 8.0 and 150 mM NaCl with a fixed amount of proteins (2 μM) and increasing concentrations of ligand. […] The data were analysed using Origin 7 software and fitted to the equation f = ΔFluorescencemax*abs(x)/(K D+abs(x)).

Assay [2] deals with T1, AccA. Kind of assay: AccA isothermal titration microcalorimetry. In kind it is binding, Agrobacterium tumefaciens C58. The settings on record: for binding to AccA detected by microcalorimetry / TΔS / ΔG / ΔH / N (binding stoichiometry) / K (association binding constant): ITC; for K (association binding constant): Ka in M-1. The procedure:
(§1) Isothermal titration microcalorimetry experiments were performed with an ITC200 isothermal titration calorimeter from MicroCal (GE Healthcare). The experiments were carried out at 20°C for AccA and 25°C for AccR. […] For agrocin 84 experiment, we inverted the protein and ligand positions: the ligand was in the cell and the protein in the syringe. This strategy was chosen to overcome the small amount of agrocin 84. The experimental data were fitted to theoretical titration curves with software supplied by MicroCal (ORIGIN). This software uses the relationship between the heat generated by each injection and ΔH (enthalpy change in Kcal.Mol-1), Ka (the association binding constant in M-1), n (the number of binding sites), total protein concentration and free and total ligand concentrations.
A general note: Isothermal titration calorimetry measures the heat released or taken up as one component is titrated into another.
Target sequence in this assay (Q52012 entry or part of it): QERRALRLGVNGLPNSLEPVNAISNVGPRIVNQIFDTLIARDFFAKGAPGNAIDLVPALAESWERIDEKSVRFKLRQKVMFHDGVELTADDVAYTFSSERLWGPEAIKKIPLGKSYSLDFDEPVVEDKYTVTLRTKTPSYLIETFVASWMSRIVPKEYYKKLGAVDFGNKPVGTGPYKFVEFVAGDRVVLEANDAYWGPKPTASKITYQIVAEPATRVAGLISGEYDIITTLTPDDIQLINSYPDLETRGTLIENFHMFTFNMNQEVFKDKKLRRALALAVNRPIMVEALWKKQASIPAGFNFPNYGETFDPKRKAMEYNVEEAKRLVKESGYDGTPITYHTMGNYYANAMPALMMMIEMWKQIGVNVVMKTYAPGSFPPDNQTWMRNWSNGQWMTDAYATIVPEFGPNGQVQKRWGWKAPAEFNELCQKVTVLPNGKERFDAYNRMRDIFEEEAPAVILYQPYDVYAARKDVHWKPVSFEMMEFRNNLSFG

Assay [3] has as its system A. tumefaciens C58. Kind of assay: Ti plasmid conjugation assay. In kind it is cell-based, Agrobacterium tumefaciens. The settings on record: for Ti plasmid transconjugants: C58 control donor with recipient C58.00, 1 mM compound; for Ti plasmid conjugation: 1 mM compound. On the procedure: (§2) In complementation assay, the accF wild-type gene was cloned into p6000 [50] plasmid and electroporated into the accF mutant. Rifampicin-resistant recipient strain C58.00 was derived from A. tumefaciens C58 cured of the At and Ti plasmids. A. tumefaciens was cultivated at 28°C in AB minimal medium containing ammonium chloride (1 g/L) and mannitol (2 g/L), or in Luria-Bertani modified medium (LBm; NaCl 5 g/L). The antibiotics gentamycin and rifampicin were added at 25 μg/mL and 100 μg/mL, respectively.
(§3) Overnight LBm cultures of recipient (C58.00) and donor (C58 control) cells were mixed in an equal ratio (1:1). 10 μl of this mix were transferred into 140 μl of AB medium supplemented with mock or 1 mM of agrocinopine A, L-arabinose-2-phosphate and glucose-2-P for static liquid cultures of 24, 48, 72 and 96 hours. Suspension dilutions of these cultures were spotted onto selective agar media to enumerate the different bacterial populations (donor, recipient and Ti plasmid transconjugants). In parallel, to quantify OC8HSLs, aliquots of cell cultures were spotted onto TLC plates (RP-18/UV254, Macherey-Nagel) and incubated with the OC8HSL-bioindicator strain A. tumefaciens NT1(pZLR4) as previously described. Tested samples were compared with a calibration curve obtained with pure OC8HSL (Sigma-Aldrich).

Assay [4] concerns the target T2, AccR (Agrobacterium fabrum, UniProt P32104).
T2 construct: 6-His tag (C); made in house; host or cells: E. coli C41
Put plainly: AccR isothermal titration microcalorimetry. In kind it is binding, Agrobacterium tumefaciens C58. On the procedure: The question arose about their biological role in A. tumefaciens, especially in relation to regulation of the AccR/quorum-sensing pathway that controls dissemination of the Ti plasmid. We first measured the affinity of the synthetic agrocinopine A towards purified recombinant AccR by isothermal titration microcalorimetry.
as §1

In assay [5] the test system is A. tumefaciens C58. Put plainly: Quantification of OC8HSL quorum-sensing signal in cell cultures. In kind it is cell-based, Agrobacterium tumefaciens. The settings on record: 1 mM compound. On the procedure: as §2, §3
Assay [6] deals with A. tumefaciens C58. Put plainly: Uptake assay: growth with compound as sole carbon source. The assay is classed as cell-based, Agrobacterium tumefaciens. The settings on record: 1 mM in AB media, OD600 monitored for 48 hours. On the procedure: This experiment confirmed that the transporter can uptake bulky synthetic molecules such as agrocinopine 3’-O-benzoate into the cell as observed for the toxin agrocin 84, which is also a relatively large molecule.
A single colony of Agrobacterium tumefaciens C58 with pTiC58 derivative pTi::Gm was grown overnight at 28°C in AB media supplemented with mannitol (2 g/L) and gentamicin 25 μg.ml-1. 20 ml of AB media in presence of a carbon source (agrocinopine 3’-O-benzoate or L-arabinose-2-phosphate at a final concentration of 1 mM) or in absence of any carbon source and supplemented with gentamicin (25 μg.ml-1) were inoculated at an initial OD600 of 0.03 and the OD was monitored for 48 hours.

In assay [7] the target is AccR, master transcriptional regulator (transcriptional repressor of the DeoR family) of Agrobacterium tumefaciens C58 (Agrobacterium tumefaciens C58). Kind of assay: native gel or EMSA; native gel electrophoresis of purified recombinant AccR in solution; conditions not given, no figure or methods section for this gel. A general note: In EMSA bound probe runs differently from free probe, usually more slowly.

[8] abbreviates: AccA 2 μM, 22°C, 25 mM Tris-HCl pH 8.0, 150 mM NaCl, one binding site model, ND: no signal detected, read-out: apparent KD (autofluorescence titration).
The mark [9] stands for this setting: accF mutant complemented with accF wild type (p6000).

T2 sequence (P32104 whole entry): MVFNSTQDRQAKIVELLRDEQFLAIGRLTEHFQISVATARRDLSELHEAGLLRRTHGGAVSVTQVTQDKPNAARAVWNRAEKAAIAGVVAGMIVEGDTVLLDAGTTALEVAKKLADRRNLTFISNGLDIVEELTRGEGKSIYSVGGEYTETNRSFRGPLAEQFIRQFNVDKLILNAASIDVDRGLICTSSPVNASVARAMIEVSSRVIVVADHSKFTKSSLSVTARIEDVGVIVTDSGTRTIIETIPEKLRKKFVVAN
AccR, master transcriptional regulator (transcriptional repressor of the DeoR family) of Agrobacterium tumefaciens C58 (natural protein), sequence (O30540 whole entry): as the sequence (P32104 whole entry) above

In the case of `O=P(O)(O)O[C@H]1C(O)O[C@H](CO)[C@@H](O)[C@@H]1O` (stereo partly drawn), the Kd in assay [1] came to 2500 nM.
For the compound `OC1OC[C@H](O)[C@H](O)[C@H]1O` (mixture of isomers) [L-arabinose, reference compound], the “binding to AccA detected by microcalorimetry” value in assay [2] is reported as “No signal detected; also recorded: could not detect any binding”. Also, the “fluorescence intensity / autofluorescence signal change on incubating AccA with ligand” value in assay [1] is recorded as “No fluorescence intensity change”.
The compound `CC(C)OP(=O)(O)O[C@H]1C(O)OC[C@H](O)[C@@H]1O` (stereo partly drawn) [L-arabinose-2-isopropylphosphate] gave a Kd in assay [2] of 2200 ± 580 nM. Further, in assay [2] (20°C), the TΔS is reported as -8E3 cal/mol/K, the ΔG is -7.6 kcal/mol, the ΔH is reported as -1.56E4 ± 493 cal/mol and the “K (association binding constant)” value was 4.72E5 ± 1.2E5. Also, the “N (binding stoichiometry)” value in assay [2] (20°C, one binding site model) amounted to 1.08 ±0.03. Further, the Kd in assay [1] (setting [8]) was 4790 ± 600 nM.
Compound `O=C[C@H](OP(=O)(O)O)[C@@H](O)[C@@H](O)CO` [L-arabinose-2-phosphate] showed a Kd in assay [2] of 1330 ± 120 nM. In addition, in assay [2] (20°C), the TΔS is -3.2E3, the ΔG is -7.9 kcal/mol, the ΔH is listed as -1.11E4 ± 168 cal/mol and the “K (association binding constant)” value was determined as 7.54E5 ±6.5E4. Moreover, in assay [2] (20°C, one binding site model), the “N (binding stoichiometry)” value is 0.95 ± 0.01. The Kd in assay [1] (setting [8]) came to 2930 ± 660 nM. Moreover, the Ti plasmid transconjugants entry in assay [3] was “could also be detected”. Also, the Ti plasmid conjugation entry in assay [3] (accF defective mutant donor) is recorded as “still activated”. The same compound returned a Kd in assay [4] of 110 ± 60 nM. In addition, in assay [4] (ITC, 25°C), the “n1 (stoichiometry, first step)” value is 0.4 and the “n2 (stoichiometry, second step)” value came out at 0.9. Besides, the “accumulation of quorum-sensing molecules” value in assay [5] (accF defective mutant) is “still observed”.
Turning to `Nc1ncnc2c1ncn2[C@@H]1O[C@H](COP(=O)(O)O)[C@@H](O)[C@H]1O` [adenosine monophosphate, reference compound], the “binding to AccA detected by microcalorimetry” value in assay [2] was “could not detect any binding”.
Take `O=C(OC1C(OP(=O)(O)OC2C(O)OCC(O)C2O)C(CO)OC1(CO)OC1OC(CO)C(O)C(O)C1O)c1ccccc1` (stereo not drawn) [agrocinopine 3’-O-benzoate]: the Kd in assay [2] was found to be 7500 ± 2200 nM. The “fold lower affinity with AccA in comparison with agrocinopine A” value in assay [2] (ITC KD values) is on record as 25 fold. Further, in assay [2] (20°C), the TΔS is reported as 3.2E3, the ΔG was -6.9 kcal/mol, the ΔH is -3.7E3 ± 374 cal/mol and the “K (association binding constant)” value is on record as 1.33E5. Also, the “N (binding stoichiometry)” value in assay [2] (20°C, one binding site model) is on record as 0.99 ± 0.06. The Kd in assay [1] (apparent KD (autofluorescence titration), AccA 2 μM, 22°C, 25 mM Tris-HCl pH 8.0, 150 mM NaCl, one binding site model, ND: no signal detected) is 5880 ± 1600 nM. Moreover, the “bacterial growth with compound as sole carbon source” value in assay [6] is “used as nutrient by the bacteria as indicated by bacterial growth”.
Turning to `O=P(O)(OC1C(O)OCC(O)C1O)OC1C(CO)OC(CO)(OC2OC(CO)C(O)C(O)C2O)C1O` (stereo not drawn) [agrocinopine A], the Kd in assay [2] is 300 ± 30 nM. Further, in assay [2] (20°C), the TΔS is given as -2.6E3, the ΔG was -8.6 kcal/mol, the ΔH is on record as -1.12E4 ± 98 cal/mol and the “K (association binding constant)” value stood at 2.99E6 ± 2.9E5. Moreover, the “N (binding stoichiometry)” value in assay [2] (20°C, one binding site model) is 1 ± 0.006. The Kd in assay [1] (setting [8]) was 1320 nM and 1300 nM. Besides, in assay [3], the Ti plasmid transconjugants result is recorded as “could also be detected”. Also, the Ti plasmid conjugation result in assay [3] (accF defective mutant donor) is “abolished”. Moreover, the Ti plasmid conjugation entry in assay [3] (setting [9]) is “restored”. Further, the “affinity towards purified recombinant AccR” value in assay [4] (ITC) was “no affinity was detected”. In addition, in assay [5] (accF defective mutant), the “accumulation of quorum-sensing molecules” value is “abolished”. Moreover, in assay [5] (setting [9]), the “accumulation of quorum-sensing molecules” value is “restored”.
Turning to `O=P(O)(O)O[C@H]1O[C@H](CO)[C@@H](O)[C@H](O)[C@H]1O` [glucose-1-phosphate, reference compound], the “fluorescence intensity / autofluorescence signal change on incubating AccA with ligand” value in assay [1] is given as “no autofluorescence signal changes”.
Turning to `O=C[C@H](O)[C@@H](O)[C@H](O)[C@H](O)COP(=O)(O)O` [glucose-6-phosphate, reference compound], in assay [1], the “fluorescence intensity / autofluorescence signal change on incubating AccA with ligand” value is “no autofluorescence signal changes”.
Usually stoichiometry N stands for a count of units in the complex or per binding partner. For the compound “AccR, master transcriptional regulator (transcriptional repressor of the DeoR family) of Agrobacterium tumefaciens C58 (natural protein)”, the stoichiometry N in assay [7] turned out to be 2.
As to agrocin 84 [reference compound], the Kd in assay [2] (20°C, one binding site model, read-out: mean KD (isothermal titration microcalorimetry)) came to 1500 ± 410 nM. In assay [2] (20°C), the TΔS is -3.6E4, the ΔG is -7.7 kcal/mol, the ΔH was -43.7 ± 3.8 kcal/mol and the “K (association binding constant)” value turned out to be 6.83E5 ± 1.8E5. The “N (binding stoichiometry)” value in assay [2] (20°C, one binding site model) is given as 0.8 ± 0.043. In assay [1], the “fluorescence intensity / autofluorescence signal change on incubating AccA with ligand” value is reported as “no signal was measured”.
Turning to phosphate [reference compound], the “fluorescence intensity / autofluorescence signal change on incubating AccA with ligand” value in assay [1] is on record as “No fluorescence intensity change”.
